Data taken from the supplement of paper PMC10307832.

Experiments:
Test in all cases: relative viability (nuclei count vs DMSO), 5 days (fraction); higher = more cells survive
Veliparib + Alpelisib = compound: C[C@]1(c2nc3c(C(N)=O)cccc3[nH]2)CCCN1 [Veliparib] + Cc1nc(NC(=O)N2CCC[C@H]2C(N)=O)sc1-c1ccnc(C(C)(C)C(F)(F)F)c1 [Alpelisib] (partner 2 µM)
How it was run: (§1)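 Relative viability divides the nuclei count in treated wells by that in vehicle wells. Lung cancer cell lines were seeded in 1536-well plates, dosed by pin tool the next day, and fixed and stained after 5 days in one step with final 0.05% Triton X-100, 1% formaldehyde and 1 ug/ml Hoechst. Dosing was a single drug or a fixed anchor-drug dose plus five library-drug doses (not always all listed) in √10 steps, and values are medians of duplicate plates imaged at 4×.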

Veliparib + Tozasertib = compound: C[C@]1(c2nc3c(C(N)=O)cccc3[nH]2)CCCN1 [Veliparib] + Cc1cc(Nc2cc(N3CCN(C)CC3)nc(Sc3ccc(NC(=O)C4CC4)cc3)n2)n[nH]1 [Tozasertib] (partner 0.1 µM)
How it was run: as §1

Veliparib + Olaparib = compound: C[C@]1(c2nc3c(C(N)=O)cccc3[nH]2)CCCN1 [Veliparib] + O=C(c1cc(Cc2n[nH]c(=O)c3ccccc23)ccc1F)N1CCN(C(=O)C2CC2)CC1 [Olaparib] (partner 8 µM)
How it was run: as §1

[1] = compound: COC1=CC=C(C=C1)CN2C=CC3=C2C=C(C=C3)C(=O)NO + CS(=O)(=O)CCNCc1ccc(-c2ccc3ncnc(Nc4ccc(OCc5cccc(F)c5)c(Cl)c4)c3c2)o1 [Lapatinib] (partner 2 µM)
How it was run: as §1

| Cell Line | relative viability (Veliparib + Alpelisib; first compound 0.02 µM) | relative viability (Veliparib + Alpelisib; first compound 0.06325 µM) | relative viability (Veliparib + Alpelisib; first compound 0.2 µM) | relative viability (Veliparib + Alpelisib; first compound 0.6325 µM) | relative viability (Veliparib + Alpelisib; first compound 2 µM) | relative viability (Veliparib + Tozasertib; first compound 0.02 µM) | relative viability (Veliparib + Tozasertib; first compound 0.06325 µM) | relative viability (Veliparib + Tozasertib; first compound 0.2 µM) | relative viability (Veliparib + Tozasertib; first compound 0.6325 µM) | relative viability (Veliparib + Tozasertib; first compound 2 µM) | relative viability (Veliparib + Olaparib; first compound 0.02 µM) | relative viability (Veliparib + Olaparib; first compound 0.06325 µM) | relative viability (Veliparib + Olaparib; first compound 0.2 µM) | relative viability (Veliparib + Olaparib; first compound 0.6325 µM) | relative viability (Veliparib + Olaparib; first compound 2 µM) | relative viability ([1]; first compound 0.08 µM) | relative viability ([1]; first compound 0.253 µM) | relative viability ([1]; first compound 0.8 µM) | relative viability ([1]; first compound 2.53 µM) | relative viability ([1]; first compound 8 µM) |
| --- | --- | --- | --- | --- | --- | --- | --- | --- | --- | --- | --- | --- | --- | --- | --- | --- | --- | --- | --- | --- |
| 201T | 1.02 | 1.02 | 1.02 | 1.01 | 0.973 | 0.935 | 0.952 | 0.961 | 0.946 | 0.921 | 0.809 | 0.906 | 0.852 | 0.824 | 0.83 | 1 | 1.03 | 1.06 | 1.05 | 0.969 |
| A549 | 0.697 | 0.686 | 0.75 | 0.688 | 0.796 | – | – | – | – | – | 0.308 | 0.375 | 0.223 | 0.314 | 0.407 | – | 0.931 | 1.09 | 0.953 | 0.915 |
| A-427 | 1.1 | 1.01 | 1.06 | 1.06 | 1.14 | – | 0.232 | 0.181 | 0.198 | 0.283 | 0.575 | 0.697 | 0.78 | 0.656 | 0.737 | – | 1.07 | 1.1 | 0.995 | 0.909 |
| ABC-1 | – | 0.809 | 1.1 | 1.05 | 0.894 | – | 0.196 | 0.137 | 0.175 | 0.17 | – | – | 0.8 | 0.874 | 0.586 | 0.618 | 1.13 | 1.21 | 1.3 | 1.13 |
| BEN | 0.925 | 0.982 | 1.2 | 0.992 | 1.05 | 0.456 | 0.558 | 0.524 | 0.477 | 0.481 | 0.799 | 1.15 | 1.12 | 0.92 | 1 | 0.552 | 0.552 | 0.637 | 0.78 | 0.621 |
| CAL-12T | 1.23 | 1.05 | 1.4 | 1.12 | 1.24 | 0.317 | 0.376 | 0.327 | 0.318 | 0.369 | 0.723 | 0.727 | 0.696 | 0.649 | 0.712 | 0.215 | – | 0.715 | 0.755 | 0.605 |
| COR-L23 | 0.784 | 0.733 | 0.874 | 0.597 | 0.786 | 0.229 | 0.249 | 0.257 | 0.216 | 0.172 | 0.376 | 0.247 | 0.329 | 0.295 | 0.355 | 0.736 | 1.07 | 0.937 | 1.02 | 0.84 |
| COR-L 105 | 1.12 | 1.1 | 1.09 | 0.862 | 1.11 | 0.35 | 0.307 | 0.434 | 0.313 | 0.346 | 0.689 | 0.519 | 0.732 | 0.608 | 0.731 | – | 0.367 | 0.37 | 0.341 | 0.296 |
| Calu-6 | 1.15 | 0.909 | 1.01 | 0.988 | 1.02 | – | – | – | – | – | 0.646 | 0.565 | 0.606 | 0.491 | 0.664 | 0.432 | 1.05 | 1.06 | 1.1 | 1.03 |
| ChaGo-K-1 | – | – | – | – | – | 0.206 | 0.217 | 0.219 | 0.199 | 0.24 | 0.362 | 0.447 | 0.429 | 0.387 | 0.443 | – | – | – | – | – |
| EBC-1 | 0.882 | 0.77 | 0.849 | 0.654 | 0.858 | – | – | – | – | – | 0.748 | 0.622 | 0.731 | 0.655 | 0.756 | – | 0.226 | 0.211 | 0.232 | 0.208 |
| EKVX | 0.784 | 0.867 | 0.85 | 0.837 | 0.902 | 0.333 | 0.362 | 0.426 | 0.375 | 0.37 | – | 0.911 | 0.889 | 0.72 | 0.867 | 0.166 | 0.18 | 0.185 | 0.203 | 0.225 |
| EMC-BAC-2 | 0.783 | 0.746 | 0.74 | 0.682 | 0.739 | 0.306 | 0.29 | 0.339 | 0.286 | 0.286 | 0.539 | 0.427 | 0.483 | 0.455 | 0.495 | 0.613 | 0.884 | 0.954 | 0.906 | 0.819 |
| EPLC-272H | – | 0.951 | 1.1 | 0.901 | 0.924 | 0.273 | 0.227 | 0.224 | 0.2 | 0.249 | – | 0.764 | 1.05 | 0.733 | 0.715 | 0.199 | 0.974 | 1.04 | 0.974 | 0.728 |
| H3255 | 0.656 | 0.841 | 0.679 | 0.522 | 0.701 | 0.624 | 0.664 | 0.704 | 0.612 | 0.538 | 0.544 | 0.61 | 0.534 | 0.567 | 0.553 | 0.184 | 0.247 | 0.221 | 0.238 | 0.226 |
| HARA | 0.943 | 0.769 | 0.921 | 0.827 | 0.822 | 0.119 | 0.117 | 0.117 | 0.0991 | 0.129 | 0.931 | – | 0.857 | 0.858 | 0.722 | 0.424 | 0.891 | 0.815 | 0.712 | 0.679 |
| HCC-15 | 0.842 | 0.905 | 0.863 | 0.839 | 0.902 | 0.361 | 0.356 | 0.464 | 0.362 | 0.354 | 0.756 | 0.649 | 0.726 | 0.686 | 0.706 | 0.458 | 0.875 | 0.843 | 0.842 | 0.73 |
| HCC-44 | 0.807 | 0.648 | 0.844 | 0.762 | 0.803 | 1.04 | – | 1.15 | 0.956 | 0.919 | 1.02 | 0.924 | 0.975 | 0.932 | 1 | 0.777 | 0.924 | 0.944 | 0.921 | 0.963 |
